Results from US10738028B2, “Spiro three-membered ring, spiro five-membered ring peptide deformylase inhibitor and use thereof in antibacteria and anti-tumor” (priority 2016, dated 2020).

What was measured:
Type in all cases: cell-based
[1] = tested on: Enterococcus faecalis (EFA); assay: MIC, two-fold agar dilution (CLSI), clinical isolates
Method in brief: (§1)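 Test samples were assayed by the CLSI-recommended two-fold agar dilution method, and the minimum inhibitory concentration against each tested strain was determined.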

[2] = tested on: Escherichia coli (including ESBLs, non-ESBLs); assay: as above
Method in brief: as §1

[3] = tested on: methicillin-sensitive Staphylococcus epidermidis (MSSE); assay: as above
Method in brief: as §1

[4] = tested on: methicillin-sensitive Staphylococcus aureus (MSSA); assay: as above
Method in brief: as §1

[5] = tested on: Moraxella catarrhalis (BCA); assay: as above
Method in brief: as §1

[6] = tested on: Enterococcus faecium (EFM); assay: as above
Method in brief: as §1

[7] = tested on: methicillin-resistant Staphylococcus epidermidis (MRSE); assay: as above
Method in brief: as §1

[8] = tested on: methicillin-resistant Staphylococcus aureus (MRSA); assay: as above
Method in brief: as §1

[9] = tested on: Streptococcus pneoumoniae (SPN); assay: as above
Method in brief: as §1

[10] = tested on: HCT-116 colorectal cancer cell line; assay: CCK-8 proliferation inhibition; conditions: Homo sapiens, HCT-116, 72 h, concentration of 30 μM; 72 hours; CCK-8; read-out: HCT116 inhibition rate/%
Method in brief: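 Growth inhibition is read by CCK-8 (1:10 dilution) after 72 h of compound exposure. HCT-116 cells grow in McCoy's 5A containing 10% newborn bovine serum at 2000 cells/well, with 1‰ DMSO as vehicle control.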

In the case of CCCC[C@H](CC(=O)NO)C(=O)N1CC2(CC2)C[C@H]1c1nc2ccccc2[nH]1 [Example 58, (R)-3-((S)-6-(1H-benzimidazol-2-yl)-5-azaspiro[2.4]heptane-5-formyl)-N-hydroxyheptanamide], the Anti-bacterial activity (MIC), strain EFA 15-1 ([1]; clinical isolate EFA 15-1) is reported as greater than 32 µg/mL, the Anti-bacterial activity (MIC), strain EFA 15-2 ([1]; clinical isolate EFA 15-2) is reported as greater than 32 µg/mL and the Anti-bacterial activity (MIC), strain EFA 15-3 ([1]; clinical isolate EFA 15-3) is reported as greater than 32 µg/mL. It also gave an Anti-bacterial activity (MIC), strain EFA 15-4 ([1]; clinical isolate EFA 15-4) greater than 32 µg/mL, an Anti-bacterial activity (MIC), strain EFA 15-5 ([1]; clinical isolate EFA 15-5) greater than 32 µg/mL and an Anti-bacterial activity (MIC), strain EFA 15-6 ([1]; clinical isolate EFA 15-6) greater than 32 µg/mL. It also gave an Anti-bacterial activity (MIC), strain EFA 15-9 ([1]; clinical isolate EFA 15-9) greater than 32 µg/mL, an Anti-bacterial activity (MIC), strain ECO+ 15-1 ([2]; clinical isolate ECO+ 15-1) greater than 32 µg/mL and an Anti-bacterial activity (MIC), strain ECO+ 15-2 ([2]; clinical isolate ECO+ 15-2) greater than 32 µg/mL. It also gave an Anti-bacterial activity (MIC), strain ECO+ 15-3 ([2]; clinical isolate ECO+ 15-3) greater than 32 µg/mL, an Anti-bacterial activity (MIC), strain ECO+ 15-4 ([2]; clinical isolate ECO+ 15-4) greater than 32 µg/mL and an Anti-bacterial activity (MIC), strain ECO− 15-1 ([2]; clinical isolate ECO− 15-1) greater than 32 µg/mL. The Anti-bacterial activity (MIC), strain ECO− 15-2 ([2]; clinical isolate ECO− 15-2) was greater than 32 µg/mL, the Anti-bacterial activity (MIC), strain ECO− 15-3 ([2]; clinical isolate ECO− 15-3) was greater than 32 µg/mL and the Anti-bacterial activity (MIC), strain ECO− 15-4 ([2]; clinical isolate ECO− 15-4) was greater than 32 µg/mL. The Anti-bacterial activity (MIC), strain MSSE 15-3 ([3]; clinical isolate MSSE 15-3) was greater than 32 µg/mL, the Anti-bacterial activity (MIC), strain MSSE 15-4 ([3]; clinical isolate MSSE 15-4) was greater than 32 µg/mL and the Anti-bacterial activity (MIC), strain MSSE 15-5 ([3]; clinical isolate MSSE 15-5) was greater than 32 µg/mL. For the same compound, the Anti-bacterial activity (MIC), strain MSSE 15-6 ([3]; clinical isolate MSSE 15-6) was greater than 32 µg/mL, the Anti-bacterial activity (MIC), strain MSSA 15-3 ([4]; clinical isolate MSSA 15-3) was greater than 32 µg/mL and the Anti-bacterial activity (MIC), strain MSSA 15-4 ([4]; clinical isolate MSSA 15-4) was greater than 32 µg/mL. It also gave an Anti-bacterial activity (MIC), strain MSSA 15-5 ([4]; clinical isolate MSSA 15-5) greater than 32 µg/mL, an Anti-bacterial activity (MIC), strain MSSA 15-6 ([4]; clinical isolate MSSA 15-6) greater than 32 µg/mL and an Anti-bacterial activity (MIC), strain BCA 14-1 ([5]; clinical isolate BCA 14-1) greater than 32 µg/mL. The Anti-bacterial activity (MIC), strain BCA 14-4 ([5]; clinical isolate BCA 14-4) was greater than 32 µg/mL, the Anti-bacterial activity (MIC), strain BCA 14-5 ([5]; clinical isolate BCA 14-5) was 8 µg/mL and the Anti-bacterial activity (MIC), strain BCA 14-6 ([5]; clinical isolate BCA 14-6) was greater than 32 µg/mL. The Anti-bacterial activity (MIC), strain BCA 14-7 ([5]; clinical isolate BCA 14-7) was greater than 32 µg/mL, the Anti-bacterial activity (MIC), strain BCA 14-8 ([5]; clinical isolate BCA 14-8) was greater than 32 µg/mL and the Anti-bacterial activity (MIC), strain BCA 14-10 ([5]; clinical isolate BCA 14-10) was greater than 32 µg/mL. It also gave an Anti-bacterial activity (MIC), strain EFM 15-1 ([6]; clinical isolate EFM 15-1) greater than 32 µg/mL, an Anti-bacterial activity (MIC), strain EFM 15-2 ([6]; clinical isolate EFM 15-2) greater than 32 µg/mL and an Anti-bacterial activity (MIC), strain EFM 15-3 ([6]; clinical isolate EFM 15-3) greater than 32 µg/mL. It also gave an Anti-bacterial activity (MIC), strain EFM 15-4 ([6]; clinical isolate EFM 15-4) of 8 µg/mL, an Anti-bacterial activity (MIC), strain EFM 15-5 ([6]; clinical isolate EFM 15-5) of 8 µg/mL and an Anti-bacterial activity (MIC), strain EFM 15-6 ([6]; clinical isolate EFM 15-6) of 8 µg/mL. For the same compound, the Anti-bacterial activity (MIC), strain MRSE 15-1 ([7]; clinical isolate MRSE 15-1) was greater than 32 µg/mL, the Anti-bacterial activity (MIC), strain MRSE 15-2 ([7]; clinical isolate MRSE 15-2) was greater than 32 µg/mL and the Anti-bacterial activity (MIC), strain MRSE 15-3 ([7]; clinical isolate MRSE 15-3) was greater than 32 µg/mL. The Anti-bacterial activity (MIC), strain MRSE 15-7 ([7]; clinical isolate MRSE 15-7) was greater than 32 µg/mL, the Anti-bacterial activity (MIC), strain MRSA 15-1 ([8]; clinical isolate MRSA 15-1) was greater than 32 µg/mL and the Anti-bacterial activity (MIC), strain MRSA 15-2 ([8]; clinical isolate MRSA 15-2) was greater than 32 µg/mL. The Anti-bacterial activity (MIC), strain MRSA 15-3 ([8]; clinical isolate MRSA 15-3) was greater than 32 µg/mL, the Anti-bacterial activity (MIC), strain MRSA 15-4 ([8]; clinical isolate MRSA 15-4) was greater than 32 µg/mL and the Anti-bacterial activity (MIC), strain SPN 16-2 ([9]; clinical isolate SPN 16-2) was 8 µg/mL. For the same compound, the Anti-bacterial activity (MIC), strain SPN 16-4 ([9]; clinical isolate SPN 16-4) was greater than 32 µg/mL and the inhibition at 30 µM [10] was 24%.
